Source: patent publication US8394848B2, “Compounds that modulate intracellular calcium” (Calcimedica, Inc., priority 2008, dated 2013)

System: JR251 or RBL cells
Test: Store-operated calcium entry, either JR251 or RBL cells, or both
Format: cell-based
Procedure: The day prior to performing the assay, RBL-2H3 cells are plated in 50 μL of complete medium in a 384 well plate. Cells are grown at 37° C./6% CO2 overnight and grow to 50-60% confluence by the next day. On the assay day, 1.5 μM Fluo-4-AM dye (Invitrogen) in complete medium is added and incubated for 1 hour at RT. Cells are washed twice in Ca^2+-free HBSS buffer and 35 μL Ca^2+-free HBSS buffer is added to each well. 10 μL of a test compound prepared in a Ca^2+-free HBSS solution at 4.5× of the desired concentration is added to a well and incubated for 5 minutes at RT. 10 μL of thapsigargin prepared in a Ca^2+-free HBSS solution at 5.5× of the desired concentration (5.5 uM) is added to each well and incubated for an additional 25 minutes. The initial baseline fluorescence signal is measured with a FLIPR^384 (Molecular Devices) plate reader. 5 μL of 12× calcium in HBSS (12 mM) is added and changes in cellular fluorescence are measured with the FLIPR^384 plate reader. In each well, the change in the fluorescent signal as a function of time due to calcium entry into the cell is determined by calculating the difference between the fluorescent signal measured 7 seconds after calcium addition and the initial baseline fluorescence signal at time zero (t=0). This parameter is designated Upslope. The IC50 value is calculated as the concentration at which 50% of the Upslope is inhibited.

| SMILES | IC50 [µM] |
| --- | --- |
| Cc1c(S(=O)(=O)c2ccc(Cl)cc2)csc1C(=O)Nc1scc(-c2ccc(Br)cc2)c1C(=O)O [4-(4-bromophenyl)-2-(4-(4-chlorophenylsulfonyl)-3-methylthiophene-2-carboxamido)thiophene-3-carboxylic acid] | < 10 |
| O=C(Nc1scc(-c2ccc(Cl)cc2)c1C(=O)O)c1ncc(-c2ccccc2)cn1 [4-(4-chlorophenyl)-2-(5-phenylpyrimidine-2-carboxamido)thiophene-3-carboxylic acid] | < 10 |
| O=C(Nc1scc(-c2cc3cccc(O)c3o2)c1C(=O)O)c1nc2cccc(F)c2o1 [2-(7-fluorobenzo[d]oxazole-2-carboxamido)-4-(7-hydroxybenzofuran-2-yl)thiophene-3-carboxylic acid] | < 10 |
| COc1ccc(-c2csc(NC(=O)c3nc4ccccc4o3)c2C(=O)O)c(Cl)c1 [2-(benzo[d]oxazole-2-carboxamido)-4-(2-chloro-4-methoxyphenyl)thiophene-3-carboxylic acid] | < 10 |
| O=C(CC(c1ccccc1)c1ccccc1)Nc1scc(-c2ccc(Br)cc2)c1C(=O)O [4-(4-bromophenyl)-2-(3,3-diphenylpropanamido)thiophene-3-carboxylic acid] | < 10 |
| O=C(Nc1scc(-c2ccc(Cl)cc2F)c1C(=O)O)c1nc2ccccc2o1 [2-(benzo[d]oxazole-2-carboxamido)-4-(4-chloro-2-fluorophenyl)thiophene-3-carboxylic acid] | < 10 |
| O=C(Nc1scc(-c2ccc(Cl)cc2)c1C(=O)O)c1nc(C2CC2)cs1 [4-(4-chlorophenyl)-2-(4-cyclopropylthiazole-2-carboxamido)thiophene-3-carboxylic acid] | < 10 |
| Cc1cccc2oc(C(=O)Nc3scc(-c4ccc(Cl)cc4)c3C(=O)O)nc12 [4-(4-chlorophenyl)-2-(4-methylbenzo[d]oxazole-2-carboxamido)thiophene-3-carboxylic acid] | < 10 |
| N#Cc1ccc(-c2csc(NC(=O)c3nc4ccccc4o3)c2C(=O)O)c(F)c1 [2-(benzo[d]oxazole-2-carboxamido)-4-(4-cyano-2-fluorophenyl)thiophene-3-carboxylic acid] | < 10 |
| O=C(CCc1ccc(Cl)cc1)Nc1scc(-c2ccc(Cl)cc2)c1C(=O)O [4-(4-chlorophenyl)-2-(3-(4-chlorophenyl)propanamido)thiophene-3-carboxylic acid] | < 10 |
| COc1c(C(=O)Nc2scc(-c3ccc(Cl)cc3)c2C(=O)O)csc1Cl [2-(5-chloro-4-methoxythiophene-3-carboxamido)-4-(4-chlorophenyl)thiophene-3-carboxylic acid] | < 10 |
| Cc1ccsc1C(=O)Nc1scc(-c2cccc(Cl)c2)c1C(=O)O [4-(3-chlorophenyl)-2-(3-methylthiophene-2-carboxamido)thiophene-3-carboxylic acid] | < 10 |
| Cc1cc(C(F)(F)F)ccc1-c1csc(NC(=O)c2nc3ccccc3o2)c1C(=O)O [2-(benzo[d]oxazole-2-carboxamido)-4-(2-methyl-4-(trifluoromethyl)phenyl)thiophene-3-carboxylic acid] | < 10 |
| Cc1ccsc1C(=O)Nc1scc(-c2ccccc2Br)c1C(=O)O [4-(2-bromophenyl)-2-(3-methylthiophene-2-carboxamido)thiophene-3-carboxylic acid] | < 10 |
| O=C(CCc1ccc(F)cc1F)Nc1scc(-c2ccc(Br)cc2)c1C(=O)O [4-(4-bromophenyl)-2-(3-(2,4-difluorophenyl)propanamido)thiophene-3-carboxylic acid] | < 10 |
| O=C(O)c1c(-c2ccc(Cl)cc2)csc1NC(=O)C(F)Cc1ccccc1 (stereo not shown) [4-(4-chlorophenyl)-2-(2-fluoro-3-phenylpropanamido)thiophene-3-carboxylic acid] | < 10 |
| O=C(Nc1scc(-c2ccccc2Br)c1C(=O)O)c1cccs1 [4-(2-bromophenyl)-2-(thiophene-2-carboxamido)thiophene-3-carboxylic acid] | < 10 |

The next lines start with the values.

| IC50 [µM] | SMILES |
| --- | --- |
| < 10 | O=C(Nc1scc(OC(=O)c2cc3ccccc3o2)c1C(=O)O)c1cc2ccccc2o1 [4-(benzofuran-2-carbonyloxy)-2-(benzofuran-2-carboxamido)thiophene-3-carboxylic acid] |
| < 10 | O=C(Nc1scc(-c2ccc(Cl)cc2)c1C(=O)O)c1cnc2ccccc2n1 [4-(4-chlorophenyl)-2-(quinoxaline-2-carboxamido)thiophene-3-carboxylic acid] |
| < 10 | O=C(O)c1c(-c2ccc(Cl)cc2)csc1NC(=O)[C@H]1CCc2ccccc2C1 [(S)-4-(4-chlorophenyl)-2-(1,2,3,4-tetrahydronaphthalene-2-carboxamido)thiophene-3-carboxylic acid] |
| < 10 | O=C(CCc1ccccc1)Nc1scc(-c2ccc(Cl)cc2)c1C(=O)O [4-(4-chlorophenyl)-2-(3-phenylpropanamido)thiophene-3-carboxylic acid] |
| < 10 | N#Cc1cccc2cc(-c3csc(NC(=O)c4cc5ccccc5o4)c3C(=O)O)oc12 [2-(benzofuran-2-carboxamido)-4-(7-cyanobenzofuran-2-yl)thiophene-3-carboxylic acid] |
| < 10 | Cc1ccc(-c2csc(NC(=O)c3nc4cccc(Br)c4o3)c2C(=O)O)c(F)c1F [2-(7-bromobenzo[d]oxazole-2-carboxamido)-4-(2,3-difluoro-4-methylphenyl)thiophene-3-carboxylic acid] |
| < 10 | O=C(CCc1c(Cl)cccc1Cl)Nc1scc(-c2ccc(Cl)cc2)c1C(=O)O [4-(4-chlorophenyl)-2-(3-(2,6-dichlorophenyl)propanamido)thiophene-3-carboxylic acid] |
| < 10 | O=C(O)c1c(-c2ccc(Cl)cc2)csc1NC(=O)[C@H](F)Cc1ccccc1Cl [(R)-4-(4-chlorophenyl)-2-(3-(2-chlorophenyl)-2-fluoropropanamido)thiophene-3-carboxylic acid] |
| < 10 | Cc1ccc(-c2csc(NC(=O)c3cc4sccc4s3)c2C(=O)O)c(F)c1F [4-(2,3-difluoro-4-methylphenyl)-2-(thieno[3,2-b]thiophene-2-carboxamido)thiophene-3-carboxylic acid] |
| < 10 | COc1ccc(-c2csc(NC(=O)CCc3ccccc3)c2C(=O)O)cc1 [4-(4-methoxyphenyl)-2-(3-phenylpropanamido)thiophene-3-carboxylic acid] |
| < 10 | Cc1ccc(-c2csc(NC(=O)c3nc4ccccc4s3)c2C(=O)O)cc1 [2-(benzo[d]thiazole-2-carboxamido)-4-p-tolylthiophene-3-carboxylic acid] |
| < 10 | O=C(O)c1c(-c2ccc(Cl)cc2)csc1NC(=O)C1Cc2ccccc21 (stereo not shown) [4-(4-chlorophenyl)-2-(1,2-dihydrocyclobutabenzene-1-carboxamido)thiophene-3-carboxylic acid] |
| < 10 | COc1ccc2oc(-c3csc(NC(=O)c4cc5ccccc5o4)c3C(=O)O)cc2c1 [2-(benzofuran-2-carboxamido)-4-(5-methoxybenzofuran-2-yl)thiophene-3-carboxylic acid] |
| < 10 | O=C(O)c1c(-c2ccc(Cl)cc2)csc1NC(=O)C1Cc2ccc(F)cc2C1 (stereo not shown) [4-(4-chlorophenyl)-2-(5-fluoro-2,3-dihydro-1H-indene-2-carboxamido)thiophene-3-carboxylic acid] |
| < 10 | O=C(Nc1scc(-c2ccc(Cl)cc2)c1C(=O)O)c1cc2nccnc2s1 [4-(4-chlorophenyl)-2-(thieno[2,3-b]pyrazine-6-carboxamido)thiophene-3-carboxylic acid] |
| < 10 | O=C(NCc1ccccc1)Nc1scc(-c2ccc(Br)cc2)c1C(=O)O [2-(3-benzylureido)-4-(4-bromophenyl)thiophene-3-carboxylic acid] |
| < 10 | O=C(Nc1scc(-c2ccc(Br)cc2)c1C(=O)O)c1nc2cccc(F)c2o1 [4-(4-bromophenyl)-2-(7-fluorobenzo[d]oxazole-2-carboxamido)thiophene-3-carboxylic acid] |
| < 10 | O=C(Nc1scc(-c2cc3ccc(Br)cc3o2)c1C(=O)O)c1cc2ccccc2o1 [2-(benzofuran-2-carboxamido)-4-(6-bromobenzofuran-2-yl)thiophene-3-carboxylic acid] |
| < 10 | O=C(Nc1scc(-c2cc(F)c(Cl)cc2F)c1C(=O)O)c1nc2ccccc2o1 [2-(benzo[d]oxazole-2-carboxamido)-4-(4-chloro-2,5-difluorophenyl)thiophene-3-carboxylic acid] |
| < 10 | N#Cc1ccc(-c2csc(NC(=O)c3cc4sccc4s3)c2C(=O)O)cc1 [4-(4-cyanophenyl)-2-(thieno[3,2-b]thiophene-2-carboxamido)thiophene-3-carboxylic acid] |
| < 10 | N#Cc1cccc2nc(C(=O)Nc3scc(-c4ccc(Br)cc4)c3C(=O)O)oc12 [4-(4-bromophenyl)-2-(7-cyanobenzo[d]oxazole-2-carboxamido)thiophene-3-carboxylic acid] |
| < 10 | O=C(Nc1scc(-c2ccc(Cl)cc2)c1C(=O)O)c1ccc(Cl)nc1Cl [4-(4-chlorophenyl)-2-(2,6-dichloronicotinamido)thiophene-3-carboxylic acid] |
| < 10 | O=C(CCc1ccccc1Cl)Nc1scc(-c2ccc(Cl)cc2)c1C(=O)O [4-(4-chlorophenyl)-2-(3-(2-chlorophenyl)propanamido)thiophene-3-carboxylic acid] |
